Where only a bound is given, the exact number is not on record here.

The target in one experiment is T1, HCV NS5B (Hepatitis C virus genotype 1b, UniProt Q9WMX2).
T1 construct: fusion protein, of which the carboxyl terminal 21 amino acids were removed to enhance its solubility; His tag (GSHHHHHH); made in house; host or cells: E. coli
Description: Inhibition of viral RNA-dependent RNA polymerase (RdRp), in vitro biochemical assay. Details: species or system HCV genotype 1b virus (BB7). The following applies: HCV NS5B RdRp, BB7 (genotype 1b); reported as class symbols; read-out: HCV pol-BB7 IC50. An excerpt:
The HCV NS5B-directed RdRp activity was established and characterized in a standard in vitro biochemical assay using a purified HCV NS5B protein derived from the consensus sequence of a patient infected with HCV genotype 1b virus (BB7). (See Blight K J et al., Science. 2000, 290:1972-4). The NS5B consensus sequence was cloned and expressed in E. coli as a histidine tagged (GSHHHHHH) fusion protein, of which the carboxyl terminal 21 amino acids were removed to enhance its solubility.
In addition to evaluating their activity in the replicon assay, representative compounds within the scope of the present invention, as shown in examples 1-453 of Table 1, were also evaluated for antiviral activity using this assay. A measure of the inhibitory activity of compounds of the invention may be expressed as IC50 values. IC50 values represent the concentration of the compound at which 50% of the RdRp activity is inhibited. […] These low concentrations of test compounds required to achieve 50% inhibition of the RdRp activity indicate that the compounds of the invention are effective at inhibiting RNA synthesis by viral RdRp enzymes.
In general, IC50 refers to the concentration needed to halve the response being measured. For `CNC(=O)c1c(-c2ccc(F)cc2)oc2cc(N(CC(O)c3ccc(F)cc3)S(C)(=O)=O)c(O)cc12` (centres unmarked) [Example 451, 2-(4-Fluoro-phenyl)-6-{[2-(4-fluoro-phenyl)-2-hydroxy-ethyl]-methanesulfonyl-amino}-5-hydroxy-benzofuran-3-carboxylic acid methylamide], the IC50 was no more than 500 nM.

As for `CNC(=O)c1c(-c2ccc(F)cc2)oc2cc(N(CC(C)O)S(C)(=O)=O)c(OC)cc12` (centres unmarked) [Example 439, 2-(4-Fluoro-phenyl)-6-[(2-hydroxy-propyl)-methanesulfonyl-amino]-5-methoxy-benzofuran-3-carboxylic acid methylamide], the IC50 is no more than 500 nM. As for `CNC(=O)c1c(-c2ccccc2)oc2ccc(O)cc12` [Example 453, 5-Hydroxy-2-phenyl-benzofuran-3-carboxylic acid methylamide], the IC50 was 5000 to 30000 nM.

With `CCc1cc2c(C(=O)NC)c(-c3ccc(F)cc3)oc2cc1C1CCCN1C(C)=O` (centres unmarked) [Example 440, 6-(1-Acetyl-pyrrolidin-2-yl)-5-ethyl-2-(4-fluoro-phenyl)-benzofuran-3-carboxylic acid methylamide], the IC50 is no more than 500 nM. For the molecule `CNC(=O)c1c(-c2ccc(F)cc2)oc2cc(-c3nnco3)c(OC)cc12` [Example 449, 2-(4-Fluoro-phenyl)-5-methoxy-6-[1,3,4]oxadiazol-2-yl-benzofuran-3-carboxylic acid methylamide], the IC50 is no more than 500 nM.

In the case of `CNC(=O)c1c(-c2ccc(F)cc2)oc2cc(N(CC(C)O)S(C)(=O)=O)c(O)cc12` (centres unmarked) [Example 438, 2-(4-Fluoro-phenyl)-5-hydroxy-6-[(2-hydroxy-propyl)-methanesulfonyl-amino]-benzofuran-3-carboxylic acid methylamide], the IC50 was no more than 500 nM. Same read-out and setting: under `CNC(=O)c1c(-c2ccc(F)cc2)oc2cc(N(C)S(C)(=O)=O)c(-c3cccs3)cc12` [Example 450, 2-(4-Fluoro-phenyl)-6-(methanesulfonyl-methyl-amino)-5-thiophen-2-yl-benzofuran-3-carboxylic acid methylamide] stands no more than 500 nM.

With `CNC(=O)c1c(-c2ccc(F)cc2)oc2cc(C3CCCN3C(=O)C3CC3)c(OC(C)C)cc12` (centres unmarked) [Example 448, 6-(1-Cyclopropanecarbonyl-pyrrolidin-2-yl)-2-(4-fluoro-phenyl)-5-isopropoxy-benzofuran-3-carboxylic acid methylamide], the half-inhibitory concentration (IC50) was no more than 500 nM.

Still in this experiment, the particulars now being: HCV NS5B RdRp, BB7; reported as range class; read-out: HCV pol-BB7 IC50.
On to `CNC(=O)c1c(-c2ccc(F)cc2)oc2cc(OCc3ccccc3)c(OC(C)C)cc12` [Example 194, 6-Benzyloxy-2-(4-fluoro-phenyl)-5-isopropoxy-benzofuran-3-carboxylic acid methylamide], for which the IC50 is 500 to 5000 nM.

Still in this experiment, the particulars now being: HCV NS5B RdRp, BB7 genotype 1b; read-out: HCV pol-BB7 IC50.
Consider `CNC(=O)c1c(-c2ccc(F)cc2)oc2cc(Nc3cc(C)nn3C)c(OC(C)C)cc12` [Example 127, 6-(2,5-Dimethyl-2H-pyrazol-3-ylamino)-2-(4-fluoro-phenyl)-5-isopropoxy-benzofuran-3-carboxylic acid methylamide], for which the IC50 fell in the range of 5000 to 30000 nM. Same read-out and setting: under `CNC(=O)c1c(-c2ccc(F)cc2)oc2cc(C#N)c(OC(C)C)cc12` [Example 129, 6-Cyano-2-(4-fluoro-phenyl)-5-isopropoxy-benzofuran-3-carboxylic acid methylamide] stands no more than 500 nM. Still for that read-out and setting: next, `CNC(=O)c1c(-c2ccc(F)cc2)oc2cc(N3CCOCC3)c(OCc3ccncc3)cc12` [Example 128, 2-(4-Fluoro-phenyl)-6-morpholin-4-yl-5-(pyridin-4-ylmethoxy)-benzofuran-3-carboxylic acid methylamide]: no more than 500 nM.

Staying with this experiment, now noted: HCV NS5B polymerase, BB7 (genotype 1b); values given as range classes A-D; read-out: HCV pol-BB7 IC50.
Turning to `CNC(=O)c1c(-c2ccc(F)cc2)oc2cc(N(C)S(C)(=O)=O)c(OCc3nccn3Cc3ccccc3)cc12` [Example 399, 5-(1-Benzyl-1H-imidazol-2-ylmethoxy)-2-(4-fluoro-phenyl)-6-(methanesulfonyl-methyl-amino)-benzofuran-3-carboxylic acid methylamide], the IC50 was no more than 500 nM.

For the molecule `CCOc1cc2c(C(=O)NC)c(-c3ccc(F)cc3)oc2cc1-c1c(C)noc1C` [Example 414, 6-(3,5-Dimethyl-isoxazol-4-yl)-5-ethoxy-2-(4-fluoro-phenyl)-benzofuran-3-carboxylic acid methylamide], the IC50 is no more than 500 nM. Still for that read-out and setting: next, `CCN(CC)C(=O)COc1cc2c(C(=O)NC)c(-c3ccc(F)cc3)oc2cc1N(C)S(C)(=O)=O` [Example 413, 5-Diethylcarbamoyl-methoxy-2-(4-fluoro-phenyl)-6-(methanesulfonyl-methyl-amino)-benzofuran-3-carboxylic acid methylamide]: no more than 500 nM; `CNC(=O)c1c(-c2ccc(F)cc2)oc2cc(-c3c(C)noc3C)c(OCCCN3CCCCC3)cc12` [Example 434, 6-(3,5-Dimethyl-isoxazol-4-yl)-2-(4-fluoro-phenyl)-5-(3-piperidin-1-yl-propoxy)-benzofuran-3-carboxylic acid methylamide]: 500 to 5000 nM; `CNC(=O)c1c(-c2ccc(F)cc2)oc2cc(N(C)S(C)(=O)=O)c(OCC(C)(C)O)cc12` [Example 412, 2-(4-Fluoro-phenyl)-5-(2-hydroxy-2-methyl-propoxy)-6-(methanesulfonyl-methyl-amino)-benzofuran-3-carboxylic acid methylamide]: no more than 500 nM. Take `CNC(=O)c1c(-c2ccc(F)cc2)oc2cc(-c3c(C)noc3C)c(OCCN3CCOCC3)cc12` [Example 433, 6-(3,5-Dimethyl-isoxazol-4-yl)-2-(4-fluoro-phenyl)-5-(2-morpholin-4-yl-ethoxy)-benzofuran-3-carboxylic acid methylamide]: the IC50 is no more than 500 nM. Same read-out and setting: next, `CNC(=O)c1c(-c2ccc(F)cc2)oc2cc(C(C)=O)ccc12` [Example 411, 6-Acetyl-2-(4-fluoro-phenyl)-benzofuran-3-carboxylic acid methylamide]: 500 to 5000 nM; `CNC(=O)c1c(-c2ccc(F)cc2F)oc2cc(-c3c(C)noc3C)c(OC)cc12` [Example 400, 2-(2,4-Difluoro-phenyl)-6-(3,5-dimethyl-isoxazol-4-yl)-5-methoxy-benzofuran-3-carboxylic acid methylamide]: no more than 500 nM; `CNC(=O)c1c(-c2ccc(F)cc2)oc2cc(CN3CC(O)=C(C#N)C3=O)c(OC)cc12` [Example 431, 6-(3-Cyano-4-hydroxy-2-oxo-2,5-dihydro-pyrrol-1-ylmethyl)-2-(4-fluoro-phenyl)-5-methoxy-benzofuran-3-carboxylic acid methylamide]: no more than 500 nM.

Still in this experiment, the particulars now being: purified His-tagged NS5B (BB7), carboxyl terminal 21 amino acids removed; read-out: HCV pol-BB7 IC50.
For `CNC(=O)c1c(-c2ccccc2)oc2ccc(OC(F)(F)F)cc12` [Example 2, 2-Phenyl-5-trifluoromethoxy-benzofuran-3-carboxylic acid methylamide], the IC50 lay in the range of 500 to 5000 nM. Same read-out and setting: under `CNC(=O)c1c(-c2ccc(F)cc2)oc2ccc(OCC(F)(F)F)cc12` [Example 64, 2-(4-Fluoro-phenyl)-5-(2,2,2-trifluoro-ethoxy)-benzofuran-3-carboxylic acid methylamide] stands 500 to 5000 nM.

For the origin of these results see patent publication US7265152B2 (ViroPharma Incorporated, priority 2002, dated 2007).
